Measured values published in patent publication US20040121004A1, “Dosage forms containing a PPI, NSAID, and buffer” (priority 2002, published 2004).

Experiments:
[1] = PPI/NSAID drug substance compatibility (storage stability of mixtures); assay type: physicochemical
Procedure: Various NSAIDs were combined with lansoprazole with and without a buffer to determine the compatibility of the components. The various mixtures were placed at room temperature and 40° C. with 75% relative humidity. The samples were tested initially and after two weeks at the storage conditions above. The results are reported in Table 1 below as a percent of the theoretical amount of a given component.

[2] = Substance compatibility in granulations: potency by HPLC, initially and after storage; assay type: physicochemical; details: for Potency NSAID, 2 Weeks Extreme Conditions: 2 weeks at 40° C. with 75% to 85% relative humidity; for Potency NSAID, 4 Weeks Extreme Conditions: 4 weeks at 40° C. with 75% to 85% relative humidity; for Potency NSAID, 19 Days RT: 19 days at room temperature; for Potency NSAID, 33 Days RT: 33 days at room temperature
Procedure: In this example, granulations of a PPI and various NSAIDs were prepared to determine the compatibility of these substances with each other in a granulated form.
The potency (mg/g) of each drug substance in each granulation was determined by HPLC.
Granulations A, C, and D, as well as naproxen and piroxicam drug substances were weighed and separately placed in scintillation vials and stored at room temperature (RT) and at 40° C. with 75% to 85% relative humidity (“Extreme Conditions”). Granulations A, C, and D, as well as the naproxen and piroxicam, were tested for potency of the lansoprazole and NSAID after 19 and 33 days at the room temperature conditions and after two and four weeks under the Extreme Conditions.

% of Theory, lansoprazole, Initial ([1]; initial, percent of theoretical amount of lansoprazole)	% of Theory, lansoprazole, 40° C. 75% humidity ([1]; two weeks at 40° C. with 75% relative humidity)	% of Theory, lansoprazole, Room Temp. ([1]; two weeks at room temperature)	Potency NSAID, 2 Weeks Extreme Conditions [2]	Potency NSAID, 4 Weeks Extreme Conditions [2]	Potency NSAID, 19 Days RT [2]	Potency NSAID, 33 Days RT [2]	SMILES
100.8/NA %	99.1/NA %	99.1/NA %	–	–	–	–	Cc1c(OCC(F)(F)F)ccnc1C[S+]([O-])c1nc2ccccc2[nH]1 (centres unmarked) [Lansoprazole, lansoprazole]
–	–	–	NA/996.7 mg/g	NA/1000.9 mg/g	NA/997.2 mg/g	NA/998.2 mg/g	COc1ccc2cc([C@H](C)C(=O)O)ccc2c1 [Naproxen, naproxen]
–	–	–	NA/942.2 mg/g	NA/1005.5 mg/g	NA/1027.1 mg/g	NA/998.5 mg/g	CN1C(C(=O)Nc2ccccn2)=C(O)c2ccccc2S1(=O)=O [Piroxicam, piroxicam]
